In ChEMBL document CHEMBL4385672, “Design, synthesis and biological evaluation of 2-(3,4-dimethoxyphenyl)-6 (1,2,3,6-tetrahydropyridin-4-yl)imidazo[1,2-a]pyridine analogues as antiproliferative agents” (Bioorg Med Chem Lett, 2019):
pIC50: −log10 of the molar value. The source made the active and inactive calls. The rule behind the calls is not given here.

Columns and labels:
MCF7 = test: Antiproliferative activity against human MCF7 cells; format: functional, cell-based
HeLa [1] = test: Antiproliferative activity against human HeLa cells incubated for 48 hrs by MTT assay; format: functional, cell-based
A549 [2] = test: Antiproliferative activity against human A549 cells incubated for 48 hrs by MTT assay; format: functional, cell-based; settings: A549, 48 h
B16-F10 [3] = test: Antiproliferative activity against mouse B16F10 cells incubated for 48 hrs by MTT assay; format: functional, cell-based; settings: B16-F10, 48 h
HEK293 = test: Cytotoxicity in HEK293 cells assessed as reduction in cel viability incubated for 48 hrs by MTT assay; format: cell-based; settings: Homo sapiens, HEK293, 48 h
HeLa [4] = test: Antiproliferative activity against human HeLa cells at 10 to 100 uM incubated for 48 hrs by MTT assay; format: functional, cell-based
A549 [5] = test: Antiproliferative activity against human A549 cells at 10 to 100 uM incubated for 48 hrs by MTT assay; format: functional, cell-based
B16-F10 [6] = test: Antiproliferative activity against mouse B16F10 cells at 10 to 100 uM incubated for 48 hrs by MTT assay; format: functional, cell-based
B16-F10 [7] = test: Induction of apoptosis in mouse B16F10 cells assessed as early apoptosis cells level at 7 uM incubated for 48 hrs by Annexin V-FITC and PI staining based flow cytometry (reference value: 0.03 +/- 0.013%); format: functional
B16-F10 [8] = test: Induction of apoptosis in mouse B16F10 cells assessed as late apoptosis cells level at 7 uM incubated for 48 hrs by Annexin V-FITC and PI staining based flow cytometry (reference value: 0.02 +/- 0.21%); format: functional
[9] = Selectivity index, ratio of IC50 for cytotoxicity in HEK293 cells assessed as reduction in cell viability incubated for 48 hrs by MTT assay to IC50 for antiproliferative activity against human HeLa cells incubated for 48 hrs by MTT assay; format: toxicity, cell-based; settings: read-out: Ratio IC50
[10] = Selectivity index, ratio of IC50 for cytotoxicity in HEK293 cells assessed as reduction in cell viability incubated for 48 hrs by MTT assay to IC50 for antiproliferative activity against human A549 cells incubated for 48 hrs by MTT assay; format: toxicity, cell-based; settings: read-out: Ratio IC50
[11] = Selectivity index, ratio of IC50 for cytotoxicity in HEK293 cells assessed as reduction in cell viability incubated for 48 hrs by MTT assay to IC50 for antiproliferative activity against mouse B16F10 cells incubated for 48 hrs by MTT assay; format: toxicity, cell-based; settings: read-out: Ratio IC50

pIC50 (HeLa [1]) | pIC50 (A549 [2]) | pIC50 (B16-F10 [3]) | Structure (SMILES) | pIC50 (MCF7) | pIC50 (HEK293) | Activity (HeLa [4]) | Activity (A549 [5]) | Activity (B16-F10 [6]) | Activity (B16-F10 [7]) [%] | Activity (B16-F10 [8]) [%] | selectivity ratio at 48 h [9] | selectivity ratio at 48 h [10] | selectivity ratio at 48 h [11]
 |  |  | COc1ccccc1[Se]c1c(-c2ccccc2)nc2ccc(F)cn12 | 4.90 |  |  |  |  |  |  |  |  | 
5.26 | 5.36 | 5.15 | COc1ccc(-c2cn3cc(C4=CCN(C(=O)C(C)(C)C)CC4)ccc3n2)cc1OC |  | 4.18 | Active | Active | Active | 25.4 | 57.3 | 10 to 14 | 10 to 14 | 10 to 14
